The target in test [1] is Serine/threonine-protein kinase Chk2 (Homo sapiens) (UniProt O96017). The experiment in a line: Inhibition of human CHK2 at 1.82 nM by HotSpot assay relative to control.
Test [2] has as its target T1, Dual specificity tyrosine-phosphorylation-regulated kinase 4 (Homo sapiens) (UniProt Q9NR20).
T1 sequence (whole entry): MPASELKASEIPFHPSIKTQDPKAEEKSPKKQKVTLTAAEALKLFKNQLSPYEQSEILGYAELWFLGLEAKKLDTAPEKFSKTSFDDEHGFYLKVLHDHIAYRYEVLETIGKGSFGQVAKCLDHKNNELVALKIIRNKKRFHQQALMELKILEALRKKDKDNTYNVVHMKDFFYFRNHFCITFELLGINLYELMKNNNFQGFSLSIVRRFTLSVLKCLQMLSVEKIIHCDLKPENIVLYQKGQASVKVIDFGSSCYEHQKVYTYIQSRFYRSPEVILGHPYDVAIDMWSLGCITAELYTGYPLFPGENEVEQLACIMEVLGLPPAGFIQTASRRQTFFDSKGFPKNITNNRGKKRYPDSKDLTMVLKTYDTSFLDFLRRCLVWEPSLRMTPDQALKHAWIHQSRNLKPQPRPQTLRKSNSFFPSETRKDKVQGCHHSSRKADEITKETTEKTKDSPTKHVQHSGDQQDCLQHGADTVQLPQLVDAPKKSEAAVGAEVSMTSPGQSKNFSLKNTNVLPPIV
The experiment in a line: Inhibition of human DYRK4 at 1.82 nM by HotSpot assay relative to control.

Test [3] concerns the target T2, Activin receptor type-1B (Homo sapiens) (UniProt P36896).
T2 sequence (whole entry): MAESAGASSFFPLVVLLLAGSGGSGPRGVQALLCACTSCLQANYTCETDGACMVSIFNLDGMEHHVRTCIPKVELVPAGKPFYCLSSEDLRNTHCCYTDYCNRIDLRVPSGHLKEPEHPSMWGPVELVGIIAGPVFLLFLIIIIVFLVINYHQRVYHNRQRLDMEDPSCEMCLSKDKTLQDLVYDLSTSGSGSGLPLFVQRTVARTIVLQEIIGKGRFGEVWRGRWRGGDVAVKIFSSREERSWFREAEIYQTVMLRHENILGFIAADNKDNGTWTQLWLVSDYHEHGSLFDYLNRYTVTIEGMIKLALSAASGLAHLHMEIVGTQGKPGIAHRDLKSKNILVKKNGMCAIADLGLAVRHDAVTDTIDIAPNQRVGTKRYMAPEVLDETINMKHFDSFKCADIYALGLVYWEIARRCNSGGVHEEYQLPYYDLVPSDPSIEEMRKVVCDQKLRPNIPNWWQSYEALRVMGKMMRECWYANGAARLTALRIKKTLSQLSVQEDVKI
The experiment in a line: Inhibition of human ALK4 at 18.6 nM by HotSpot assay relative to control.

Test [4] deals with G protein-coupled receptor kinase 4 (Homo sapiens) (UniProt P32298). The experiment in a line: Inhibition of human GRK4 at 18.6 nM by HotSpot assay relative to control.
G protein-coupled receptor kinase 4 (Homo sapiens), sequence (P32298 whole entry, looked up): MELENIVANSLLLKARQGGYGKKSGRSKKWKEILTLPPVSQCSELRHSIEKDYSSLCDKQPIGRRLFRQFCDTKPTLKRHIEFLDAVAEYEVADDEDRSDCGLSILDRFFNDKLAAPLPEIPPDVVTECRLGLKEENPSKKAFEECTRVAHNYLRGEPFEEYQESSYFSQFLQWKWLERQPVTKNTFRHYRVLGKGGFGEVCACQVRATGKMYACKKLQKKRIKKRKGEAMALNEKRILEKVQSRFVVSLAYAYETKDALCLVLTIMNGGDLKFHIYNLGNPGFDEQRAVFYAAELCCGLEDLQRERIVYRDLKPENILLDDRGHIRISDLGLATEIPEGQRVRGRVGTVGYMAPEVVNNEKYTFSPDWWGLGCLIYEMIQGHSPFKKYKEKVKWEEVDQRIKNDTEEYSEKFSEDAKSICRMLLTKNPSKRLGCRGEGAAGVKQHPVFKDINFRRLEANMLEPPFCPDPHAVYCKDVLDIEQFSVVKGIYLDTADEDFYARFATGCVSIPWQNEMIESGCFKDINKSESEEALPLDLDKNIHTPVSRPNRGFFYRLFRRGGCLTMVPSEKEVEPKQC
Test [5] deals with RAC-alpha serine/threonine-protein kinase (Homo sapiens) (UniProt P31749). The experiment in a line: Inhibition of human AKT1 at 18.6 nM by HotSpot assay relative to control.
RAC-alpha serine/threonine-protein kinase (Homo sapiens), sequence (P31749 whole entry): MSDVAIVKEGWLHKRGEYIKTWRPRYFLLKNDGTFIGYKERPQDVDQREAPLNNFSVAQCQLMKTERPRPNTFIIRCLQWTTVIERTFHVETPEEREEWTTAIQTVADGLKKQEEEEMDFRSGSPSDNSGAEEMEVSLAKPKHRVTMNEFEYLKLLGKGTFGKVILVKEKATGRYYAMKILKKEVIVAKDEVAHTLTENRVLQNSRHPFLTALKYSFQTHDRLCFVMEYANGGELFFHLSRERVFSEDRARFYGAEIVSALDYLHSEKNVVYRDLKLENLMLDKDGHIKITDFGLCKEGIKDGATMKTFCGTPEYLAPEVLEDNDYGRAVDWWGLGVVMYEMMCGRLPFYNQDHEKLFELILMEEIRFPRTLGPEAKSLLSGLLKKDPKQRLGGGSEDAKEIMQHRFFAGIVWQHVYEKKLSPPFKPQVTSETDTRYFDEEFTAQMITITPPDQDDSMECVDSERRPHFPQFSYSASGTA
Test [6] addresses Calcium/calmodulin-dependent protein kinase type II subunit alpha (Homo sapiens) (UniProt Q9UQM7). The experiment in a line: Inhibition of human CAMK2a at 18.6 nM by HotSpot assay relative to control.
Test [7] has as its target T3, Serine/threonine-protein kinase Nek9 (Homo sapiens) (UniProt Q8TD19).
T3 sequence (whole entry): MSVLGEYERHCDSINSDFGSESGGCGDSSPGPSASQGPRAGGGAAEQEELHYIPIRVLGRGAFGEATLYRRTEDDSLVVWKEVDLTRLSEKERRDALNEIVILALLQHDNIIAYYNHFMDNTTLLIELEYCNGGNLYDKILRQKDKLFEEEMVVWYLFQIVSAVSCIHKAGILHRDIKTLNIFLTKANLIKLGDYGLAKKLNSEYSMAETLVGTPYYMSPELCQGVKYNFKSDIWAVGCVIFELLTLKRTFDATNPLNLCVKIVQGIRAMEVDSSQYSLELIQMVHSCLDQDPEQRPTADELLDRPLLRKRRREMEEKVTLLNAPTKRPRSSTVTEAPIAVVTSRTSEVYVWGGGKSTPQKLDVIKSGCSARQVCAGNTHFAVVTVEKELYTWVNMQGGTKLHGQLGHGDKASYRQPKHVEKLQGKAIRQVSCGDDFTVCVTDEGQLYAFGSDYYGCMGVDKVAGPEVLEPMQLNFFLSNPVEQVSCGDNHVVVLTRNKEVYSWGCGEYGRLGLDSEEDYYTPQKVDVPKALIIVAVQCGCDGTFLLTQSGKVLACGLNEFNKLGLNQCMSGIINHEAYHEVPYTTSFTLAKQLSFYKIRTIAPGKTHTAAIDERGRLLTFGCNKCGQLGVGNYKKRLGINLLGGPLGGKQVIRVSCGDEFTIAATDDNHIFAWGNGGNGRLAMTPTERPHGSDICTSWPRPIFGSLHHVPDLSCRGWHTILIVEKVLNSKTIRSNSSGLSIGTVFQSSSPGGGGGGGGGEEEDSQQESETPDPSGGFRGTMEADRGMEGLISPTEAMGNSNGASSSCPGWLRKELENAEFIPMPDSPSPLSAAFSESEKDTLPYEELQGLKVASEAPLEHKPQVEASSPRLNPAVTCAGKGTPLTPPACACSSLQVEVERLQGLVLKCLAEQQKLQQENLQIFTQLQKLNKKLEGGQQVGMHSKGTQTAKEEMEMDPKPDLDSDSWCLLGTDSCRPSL
The experiment in a line: Inhibition of human NEK9 at 18.6 nM by HotSpot assay relative to control.

In test [8] the target is Cyclin-dependent kinase 1/cyclin B1 (Homo sapiens) (UniProt P06493+P14635). The experiment in a line: Inhibition of human CDK1/cyclin B at 18.6 nM by HotSpot assay relative to control. In kind it is protein-complex assay.
Cyclin-dependent kinase 1/cyclin B1 (Homo sapiens), sequence (P06493 whole entry, looked up): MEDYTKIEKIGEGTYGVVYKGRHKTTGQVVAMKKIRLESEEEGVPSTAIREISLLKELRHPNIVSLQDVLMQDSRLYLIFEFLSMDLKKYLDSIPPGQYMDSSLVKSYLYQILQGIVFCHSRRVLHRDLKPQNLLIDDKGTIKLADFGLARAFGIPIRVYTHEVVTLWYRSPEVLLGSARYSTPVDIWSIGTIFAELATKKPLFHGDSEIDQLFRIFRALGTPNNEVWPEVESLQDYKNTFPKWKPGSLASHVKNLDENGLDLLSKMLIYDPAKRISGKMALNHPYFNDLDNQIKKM
Cyclin-dependent kinase 1/cyclin B1 (Homo sapiens), sequence (P14635 whole entry, looked up): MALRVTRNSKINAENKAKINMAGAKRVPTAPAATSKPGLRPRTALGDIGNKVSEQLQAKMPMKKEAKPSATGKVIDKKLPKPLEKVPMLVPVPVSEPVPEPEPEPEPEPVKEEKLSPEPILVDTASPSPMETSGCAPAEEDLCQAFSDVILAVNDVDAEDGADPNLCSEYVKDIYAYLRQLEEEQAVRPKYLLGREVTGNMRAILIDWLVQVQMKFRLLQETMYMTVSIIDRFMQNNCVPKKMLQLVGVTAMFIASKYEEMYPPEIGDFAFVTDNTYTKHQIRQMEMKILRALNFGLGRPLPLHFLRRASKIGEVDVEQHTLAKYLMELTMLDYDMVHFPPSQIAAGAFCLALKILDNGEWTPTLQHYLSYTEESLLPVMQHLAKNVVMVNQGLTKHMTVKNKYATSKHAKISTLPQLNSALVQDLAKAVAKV

Serine/threonine-protein kinase Chk2 (Homo sapiens), sequence (O96017 whole entry): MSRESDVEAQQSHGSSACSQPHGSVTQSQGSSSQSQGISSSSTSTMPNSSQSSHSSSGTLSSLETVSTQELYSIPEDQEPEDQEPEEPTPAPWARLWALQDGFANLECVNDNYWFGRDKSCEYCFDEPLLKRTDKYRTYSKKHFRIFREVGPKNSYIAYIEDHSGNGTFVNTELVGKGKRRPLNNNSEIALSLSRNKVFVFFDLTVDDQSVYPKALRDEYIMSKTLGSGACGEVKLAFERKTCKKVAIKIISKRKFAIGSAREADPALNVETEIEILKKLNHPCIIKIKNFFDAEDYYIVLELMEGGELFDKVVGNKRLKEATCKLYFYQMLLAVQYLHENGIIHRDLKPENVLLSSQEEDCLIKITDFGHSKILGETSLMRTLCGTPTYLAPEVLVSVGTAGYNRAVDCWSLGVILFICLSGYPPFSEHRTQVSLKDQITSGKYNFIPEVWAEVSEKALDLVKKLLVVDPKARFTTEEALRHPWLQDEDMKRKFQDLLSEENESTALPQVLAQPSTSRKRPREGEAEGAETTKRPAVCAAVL
Calcium/calmodulin-dependent protein kinase type II subunit alpha (Homo sapiens), sequence (Q9UQM7 whole entry): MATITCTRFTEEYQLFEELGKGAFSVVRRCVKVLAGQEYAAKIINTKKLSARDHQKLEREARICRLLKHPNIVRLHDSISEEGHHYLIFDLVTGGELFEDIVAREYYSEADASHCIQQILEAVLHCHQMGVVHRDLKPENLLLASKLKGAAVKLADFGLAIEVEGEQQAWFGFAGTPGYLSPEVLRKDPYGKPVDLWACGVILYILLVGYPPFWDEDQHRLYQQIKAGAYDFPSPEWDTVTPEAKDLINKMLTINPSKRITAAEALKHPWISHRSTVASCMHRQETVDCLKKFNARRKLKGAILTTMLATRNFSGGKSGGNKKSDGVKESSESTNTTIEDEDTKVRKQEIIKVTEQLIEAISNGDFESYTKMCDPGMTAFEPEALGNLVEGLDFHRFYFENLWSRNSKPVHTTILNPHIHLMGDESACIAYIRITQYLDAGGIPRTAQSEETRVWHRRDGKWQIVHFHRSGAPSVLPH

In the case of `C[C@@]1(C(=O)Nc2ccc(F)nc2)CCCN1c1nc(Nc2cc(C3CC3)n[nH]2)c2cccn2n1`, the inhibition (as a rule, the change of the read-out against control, counted positive when it falls) in test [1] was 0.29%; in test [2] it was -0.4%.
Turning to `C[C@]1(O)C[C@@H](c2nc(-c3ccc4ccc(-c5ccccc5)nc4c3)c3c(N)nccn32)C1`, the inhibition is -0.44% in test [3]; 5.49% in test [4]; -3.01% in test [5]; -4.3% in test [6]; -6.26% in test [7]; 1.65% in test [8].

For the origin of these results see ChEMBL document CHEMBL5653615 (J Biol Chem, 2013).
